Consider 7 sequences from patent US20260021197A1, “NANOPARTICLES AND PEPTIDES FOR THE DELIVERY OF CARGOS TO CHONDROCYTES” (4BASEBIO UK LTD, priority 2022, published 2026).

Data set [1] relates to primary human chondrocytes. Put plainly: Transfection of primary human chondrocytes, GFP expression by flow cytometry. Format: cell-based. Conditions: closed linear DNA:lipid:peptide nanoparticles, 48 h post-transfection. As to the method: (§1) Peptides identified via phage display with affinity toward primary human chondrocytes, and peptides identified in the literature with desirable chondrocyte binding characteristics were synthesised via solid-phase peptide synthetic chemistry in various conformations. A sixteen-lysine tail group was attached using standard synthesis methods (amsbio, UK).
Transfections in primary human chondrocyte cells were performed with a range of peptide:liposome:nucleic acid cargo mass ratios and N/P ratios. Transfections were performed in a 96-well plate at a density of 2000 cells per well seeded 5 days prior to transfection. Charge and mass ratio of components in the transfection complex varied; DNA and mRNA were maintained at a constant mass of 300 ng per well. […] The mass ratio of closed linear DNA:lipid and mRNA:lipid was maintained at 1:3, while the chondrocyte-cell binding peptides were in some cases altered.
(§2) Transfection complexes were formed via electrostatic interaction by vigorous pipetting, before diluting in a final volume of 200 ul per well, with a DNA concentration of 1.5 ng/ul. All dilutions were performed with OptiMEM reduced serum media. Controls included cells with no transfection complexes added (OptiMEM only), along with liposomes encapsulating nucleic acid cargo without peptide.
Transfection complexes were incubated for 30 min at RT before adding to cells. All conditions were performed in triplicate. Cells were incubated at 37° C. for 4 hours, before replacing media with growth media. 48 h post-transfection, the cells were rinsed in PBS, before incubation in 0.05% Trypsin EDTA (Gibco) to detach the cells. 48 h post-transfection, cells were resuspended in PBS for analysis by flow cytometry using the Aligent Novocyte flow cytometer.

Data set [2] in a line: Biophysical characterisation of nanoparticles by dynamic light scattering (size, PDI). The data set is classed as physicochemical. As to the method:
The size in nm by Dynamic Light Scattering (DLS), zeta potential in mV by Electrophoretic Light Scattering (ELS), and concentration of particles per ml by Multi-Angle Dynamic Light Scattering (MADLS) of the closed linear DNA/mRNA-lipid-peptide nanoparticles was determined using the Zetasizer Ultra (Malvern). Complexes were prepared as before, except formulated in nuclease-free water rather than Opti-MEM. Samples containing 0.7 μg hpDNA were diluted in 1 ml for analysis.

Data set [3] deals with primary human chondrocytes. In words: Transfection of primary human chondrocytes, luciferase expression. Format: cell-based. The following applies: FIG. 3, mRNA:lipid:peptide nanoparticles, DOTMA-DOPE 2:1 + 10% cholesterol, 4 h post-transfection. As to the method:
as §1
Transfections in primary human chondrocyte cells were performed with a range of peptide: liposome:nucleic acid cargo mass ratios and N/P ratios. Transfections were performed in a 96-well plate at a density of 2000 cells per well seeded 5 days prior to transfection. Charge and mass ratio of components in the transfection complex varied; DNA and mRNA were maintained at a constant mass of 300 ng per well. The molar ratio of the cationic lipid DOTMA to the phospholipid DOPE was kept at 2:1 (DD 2:1), while cholesterol was added at a molar percentage of 10% of the total lipid content. The mass ratio of closed linear DNA:lipid and mRNA:lipid was maintained at 1:3, while the chondrocyte-cell binding peptides were in some cases altered.
as §2
Transfection complexes were incubated for 30 min at RT before adding to cells. All conditions were performed in triplicate. Cells were incubated at 37° C. for 4 hours, before replacing media with growth media. 48 h post-transfection for DNA and 4 h post-transfection for RNA, the cells were rinsed in PBS, before resuspension in Reporter Lysis buffer (Promega). Plates were incubated at 4° C. for 20 minutes, before −80° C. for 40 minutes. After thawing, luciferase activity was measured following injection of the luciferase assay substrate on the ClarioSTAR plus plate reader (BMG Labtech, Aylesbury, UK). Luciferase expression was normalised to protein content using Pierce BCA Protein Assay, with absorbance measured at 562 nm. Luciferase activity was expressed as Relative Light Units per mg of protein (RLU/mg).

Data set [4] in a line: Ribogreen encapsulation efficiency assay. Format: physicochemical. The following applies: FIG. 4; mRNA:lipid:peptide nanoparticles at N/P ratio 3.98. As to the method: Encapsulation efficiency (EE %) was measured using Quant-iT™ RiboGreen™ RNA Assay Kit (Invitrogen™, Thermo Fisher Scientific, Waltham, MA, USA). Briefly, mRNA was mixed with RiboGreen™ in a total volume of 100 ul TE buffer (10 mM Tris-HCl, 1 mM EDTA, pH 7.5) per well of a 96-well plate and incubated for 10 minutes at RT in the absence of light. Lipid and peptide components were each diluted in a volume of 50 ul TE buffer before mixing thoroughly with the mRNA-Ribogreen via pipette. Nanocomplexes were incubated for 30 minutes at RT in the absence of light. Encapsulation efficiency was measured by quantifying the fluorescence (λem=520 nm, λex=480 nm) of RNA encapsulated in nanoparticles vs. the fluorescence of naked mRNA complexed with Ribogreen™ reagent using a fluorimeter (ClarioStar, BMG Labtech).

Setting [5] is: FIG. 5, closed linear DNA, DOTMA-DOPE 2:1 + 10% cholesterol.
[6] abbreviates: FIG. 6, mRNA, DOTMA-DOPE 2:1 + 10% cholesterol.
The mark [7] stands for this setting: FIG. 1, DOTMA-DOPE 2:1 + 10% cholesterol.

With “KKKKKKKKKKKKKKKKRVRRCDWRVIIPPRPSAC [HC5 C-C]”, in data set [1] (FIG. 2, C16-DOPE 2:1 with 10% cholesterol), the “GFP expression (% of the cells expressing GFP)” value was found to be 24%. Also, in data set [2] (setting [5]), the “average size by DLS” value amounted to 51.37 nm.
For “KKKKKKKKKKKKKKKKGAHDSQLEALIKFM [HC4 L-N]”, the “average size by DLS” value in data set [2] (setting [6]) is 36.65 nm.
Take “KKKKKKKKKKKKKKKKGACHDSQLEALIKFMC [HC4 C-N]”: in data set [2] (setting [5]), the “Polydispersity Index (PDI)” value amounted to 0.45.
Take “KKKKKKKKKKKKKKKKGACRLDPTSYLRTFWC [HC3 C-N]”: in data set [1] (setting [7]), the “GFP expression (% of the cells expressing GFP)” value amounted to 9% and the “median fluorescence intensity (MFI)” value turned out to be 1E+05. Moreover, the “average size by DLS” value in data set [2] (setting [6]) came to 78 nm. The “Polydisperse Index (PDI)” value in data set [2] (FIG. 6 passage, printed as closed linear DNA, DOTMA-DOPE 2:1 10% cholesterol) came to 0.37.
For “KKKKKKKKKKKKKKKKGACDWRVIIPPRPSAC [HC5 C-N]”, in data set [1] (setting [7]), the “GFP expression (% of the cells expressing GFP)” value is 21%. Also, the “median fluorescence intensity (MFI)” value in data set [1] (setting [7]) is listed as 1E+06. Besides, the “average size by DLS” value in data set [2] (setting [5]) came to 100 nm. Also, the luciferase expression in data set [3] (N/P ratio 3.48) turned out to be 3.2E+11 RLU/mg protein; in data set [3] (N/P ratio 4.48), 4E+11 RLU/mg protein; in data set [3] (N/P ratio 7.48), 3.3E+11 RLU/mg protein; in data set [3] (N/P ratio 8.48), 2.5E+11 RLU/mg protein.
For “KKKKKKKKKKKKKKKKGARLDPTSYLRTFW [HC3 L-N]”, the “Polydispersity Index (PDI)” value in data set [2] (setting [5]) was 0.2. Besides, the “Polydisperse Index (PDI)” value in data set [2] (setting [6]) is listed as 0.13.
Consider “KKKKKKKKKKKKKKKKGADWRVIIPPRPSA [HC5 L-N]”, for which, in data set [4], the “encapsulation efficacy (% of mRNA encapsulated)” value is 96.86%.
